Reference: ChEMBL document CHEMBL4689842, “EUbOPEN Chemogenomics Library wave 1” (2021)

How the values were obtained:
HEK-293T = assay: Incucyte cell viability with HEK293T; type: toxicity, cell-based; conditions: human, 10 µM, compound concentration 10 uM
U2OS = assay: Incucyte cell viability with U2OS; type: toxicity, cell-based; conditions: human, 10 µM, compound concentration 10 uM
[1] = 0 h, replicate number 2, timepoint 0 hours
[2] = 6 h, replicate number 1, timepoint 6 hours
[3] = 12 h, replicate number 1, timepoint 12 hours
[4] = 18 h, replicate number 1, timepoint 18 hours
[5] = 24 h, replicate number 1, timepoint 24 hours
[6] = 0 h, replicate number 1, timepoint 0 hours
[7] = 24 h, replicate number 2, timepoint 24 hours
Further: filed as whole numbers so only -1 and 0 and 1 occur.

CCCS(=O)(=O)c1nc(NC2CC2)cc(-c2ccc3c(ccn3C3CC(C)(C)NC(C)(C)C3)c2)n1
Growth Rate (HEK-293T; [1]): 0 | Growth Rate (HEK-293T; [2]): 0 | Growth Rate (HEK-293T; [3]): 0 | Growth Rate (HEK-293T; [4]): 0 | Growth Rate (HEK-293T; [5]): 0 | Growth Rate (U2OS; [1]): 0 | Growth Rate (U2OS; [2]): 0 | Growth Rate (U2OS; [3]): 0 | Growth Rate (U2OS; [4]): 0 | Growth Rate (U2OS; [5]): 0

CN1CCC(=C2c3ccccc3CC(=O)c3sccc32)CC1.O=C(O)/C=C/C(=O)O [KETOTIFEN FUMARATE]
Growth Rate (HEK-293T; [1]): 1 | Growth Rate (HEK-293T; [2]): 0 | Growth Rate (HEK-293T; [3]): 0 | Growth Rate (HEK-293T; [4]): 0 | Growth Rate (HEK-293T; [5]): 0 | Growth Rate (U2OS; [6]): 1 | Growth Rate (U2OS; 6 h, replicate number 2, timepoint 6 hours): 0 | Growth Rate (U2OS; [3]): 1 | Growth Rate (U2OS; [4]): 1 | Growth Rate (U2OS; [5]): 1 | Growth Rate (U2OS; [7]): 0

CN(C)C(=O)C(CCN1CCC(O)(c2ccc(Cl)cc2)CC1)(c1ccccc1)c1ccccc1.Cl [LOPERAMIDE HYDROCHLORIDE]
Growth Rate (HEK-293T; [1]): 1 | Growth Rate (HEK-293T; [2]): 0 | Growth Rate (HEK-293T; [3]): 0 | Growth Rate (HEK-293T; [4]): 0 | Growth Rate (HEK-293T; [5]): 0 | Growth Rate (U2OS; [2]): 0 | Growth Rate (U2OS; [3]): 0 | Growth Rate (U2OS; [4]): 0 | Growth Rate (U2OS; [5]): 0

O=C1N/C(=N/c2ccccc2F)S/C1=C\c1ccc(C(=O)O)cc1
Growth Rate (HEK-293T; [3]): 1 | Growth Rate (HEK-293T; [5]): 1 | Growth Rate (U2OS; [6]): 0 | Growth Rate (U2OS; [1]): 1 | Growth Rate (U2OS; [3]): 1 | Growth Rate (U2OS; 12 h, replicate number 2, timepoint 12 hours): 0 | Growth Rate (U2OS; [4]): 1 | Growth Rate (U2OS; 18 h, replicate number 2, timepoint 18 hours): 0 | Growth Rate (U2OS; [5]): 1 | Growth Rate (U2OS; [7]): 0
